{
  "source": "paper PMC6221475",
  "about": "(Bioorganic & medicinal chemistry letters, 2018)",
  "key": {"VAChT [1]": {"tested_on": "VAChT", "conditions": "cited from earlier work"}, "VAChT [2]": {"tested_on": "VAChT", "conditions": "cited from earlier work", "remark": "listed apart in the source"}, "VAChT [3]": {"biological_target": "T1, VAChT (Homo sapiens, UniProt Q16572)", "T1 sequence (Q16572 1-532)": "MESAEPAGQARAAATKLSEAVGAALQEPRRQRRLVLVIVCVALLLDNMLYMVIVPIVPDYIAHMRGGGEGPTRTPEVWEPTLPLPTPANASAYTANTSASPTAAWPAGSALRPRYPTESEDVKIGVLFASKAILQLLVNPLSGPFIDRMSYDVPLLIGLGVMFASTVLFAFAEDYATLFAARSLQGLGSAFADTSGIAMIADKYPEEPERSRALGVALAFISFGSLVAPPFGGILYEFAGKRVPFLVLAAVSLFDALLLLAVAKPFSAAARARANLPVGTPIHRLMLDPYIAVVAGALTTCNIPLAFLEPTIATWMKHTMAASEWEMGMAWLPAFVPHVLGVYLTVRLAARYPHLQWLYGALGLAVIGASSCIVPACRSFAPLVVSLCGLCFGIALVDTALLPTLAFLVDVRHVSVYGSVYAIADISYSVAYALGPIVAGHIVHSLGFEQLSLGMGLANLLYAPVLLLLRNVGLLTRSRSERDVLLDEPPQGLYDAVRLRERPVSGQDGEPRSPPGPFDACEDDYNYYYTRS", "assay": "VAChT competitive binding assay with tritiated vesamicol", "conditions": "read-out: Ki-VAChT; tritiated vesamicol as competitive radioligand"}, "σ2 receptors": {"biological_target": "σ2 receptors", "assay": "σ2 receptor in vitro binding assay with [3H]DTG"}, "σ1 receptors": {"biological_target": "σ1 receptors", "assay": "σ1 receptor in vitro binding assay with [3H]pentazocine"}},
  "data": [
    {"smiles": "OC1Cc2cccc(OCC[18F])c2CC1N1CCC(c2ccccc2)CC1", "note": "(single isomer, unassigned; (-)) [[^18F]FEOBV, (−)-5-[^18F]fluoroethoxybenzovesamicol]", "values": [
      {"measurement": "time required to equilibrate in the striatum", "setting": "VAChT [1]; human, PET, ref [11], [16], [17]", "value": "over 6 h"}
    ]},
    {"smiles": "O=C(c1ccc(F)cc1)C1CCN(C2Cc3c(cccc3OCC[18F])CC2O)CC1", "note": "(single isomer, unassigned; (-)) [[^18F]VAT, (−)-(1-(8-(2-[^18F]fluoroethoxy)-3-hydroxy-1,2,3,4tetrahydro-naphthalen-2-yl)-piperidin-4-yl)(4-fluorophenyl)-methanone]", "values": [
      {"measurement": "standardized uptake value (SUV) at peak uptake", "setting": "VAChT [2]; NHP brain, at 15 min, ref [23]", "value": 5.1},
      {"measurement": "uptake ratio of target (striatum) to non-target (cerebellum)", "setting": "VAChT [2]; NHP brain, ref [23]", "value": 3.0},
      {"measurement": "time of peak uptake in the brain", "setting": "VAChT [2]; in vivo", "value": 15, "unit": "min"}
    ]},
    {"smiles": "OC1Cc2cccc([123I])c2CC1N1CCC(c2ccccc2)CC1", "note": "(single isomer, unassigned; (-)) [[^123I]IBVM, (−)-5-[^123I]iodo-benzovesamicol]", "values": [
      {"measurement": "time of peak uptake in the target regions post-injection", "setting": "VAChT [1]; human subjects, SPECT, ref [10], [13]–[15]", "value": "at least 6 h"}
    ]},
    {"smiles": "O=C(c1ccc(F)cc1)C1CCN(C2Cc3c(O)cccc3CC2O)CC1", "note": "(single isomer, unassigned; (-)) [(−)-1, (−)-(1-(3,8-Dihydroxy-1,2,3,4-tetrahydronaphthalen-2-yl)piperidin-4-yl)(4-fluorophenyl)methanone]", "values": [
      {"measurement": "Ki", "setting": "VAChT [3]", "value": "4.62 ± 0.22", "unit": "nM"},
      {"measurement": "Ki", "setting": "σ2 receptors; read-out: Ki-σ2, [3H]DTG as radioligand", "value": "> 10000", "unit": "nM"},
      {"measurement": "VAChT/σ2", "setting": "σ2 receptors; selectivity ratio for VAChT over σ2", "value": 2165},
      {"measurement": "Ki", "setting": "σ1 receptors; read-out: Ki-σ1, [3H]pentazocine as radioligand", "value": "2010 ± 450", "unit": "nM"},
      {"measurement": "VAChT/σ1", "setting": "σ1 receptors; selectivity ratio for VAChT over σ1", "value": 435}
    ]}
  ]
}
